Test results published in article PMC8551653, “Bisphenol A derivatives act as novel coactivator-binding inhibitors for estrogen receptor β” (The Journal of Biological Chemistry, 2021).

Columns and labels:
ERβ [1] = target: T1, ERβ (Homo sapiens, UniProt Q92731); experiment: Radioligand competitive binding assay with [3H]E2 for ERβ (GST-ERβ-LBD); set-up: made in house; host or cells: Escherichia coli BL21α; settings: for preference of binding ERβ over ERα: ERβ versus ERα IC50
Procedure: Human ERβ cDNA was obtained from OriGene Technologies. The cDNA of ERβ-LBD was amplified using PCR and subcloned into a pGEX-6p-1 expression vector. The expression of GST-fused ERβ-LBD was induced by 1 mM IPTG in Escherichia coli BL21α at 16 °C for overnight. The resulting crude protein was affinity-purified using Glutathione-Sepharose 4B (Cytiva), followed by gel filtration using a Sephadex G-10 column (Cytiva).
Target sequence in this assay (Q92731 263-530): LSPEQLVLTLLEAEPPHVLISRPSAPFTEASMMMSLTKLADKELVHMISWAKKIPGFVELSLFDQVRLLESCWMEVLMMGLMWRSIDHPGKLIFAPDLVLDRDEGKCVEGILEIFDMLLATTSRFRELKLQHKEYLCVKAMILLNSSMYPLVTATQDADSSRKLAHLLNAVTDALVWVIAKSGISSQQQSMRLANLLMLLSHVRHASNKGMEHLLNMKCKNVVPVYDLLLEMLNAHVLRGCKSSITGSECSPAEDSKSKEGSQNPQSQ

ERα = test system: ERα; set-up: method as in PMID 31289329; settings: competitive binding, [3H] 17β-estradiol as radioligand; mean ± SD; read-out: Binding affinity (IC50, nM) ERα; cited from earlier work
ERβ [2] = target: T1, ERβ; experiment: Luciferase reporter gene assay in HeLa cells, agonistic activity; assay type: cell-based; set-up: expressed in transfected cells; host or cells: HeLa; settings: for maximum fold induction (agonistic activity on ERβ) / ERβ agonist activity (in words): HeLa cells; for maximum fold induction (agonistic activity on ERβ): ERE luciferase reporter, tested up to 10 µM; for ERβ agonist activity (in words): WT ERβ
Procedure: (§1) HeLa cells were maintained in Eagle's minimum essential medium (Nissui Pharmaceutical Co, Ltd) supplemented with DCC-treated fetal bovine serum (10%, v/v) at 37 °C under 5% CO2. […] After a 24-h incubation, luciferase activity was measured using the ONE-Glo Luciferase Assay System (Promega Co) on an EnSpire multimode plate reader (PerkinElmer, Inc).
Target sequence in this assay (Q92731 whole entry, the tested form may be a part): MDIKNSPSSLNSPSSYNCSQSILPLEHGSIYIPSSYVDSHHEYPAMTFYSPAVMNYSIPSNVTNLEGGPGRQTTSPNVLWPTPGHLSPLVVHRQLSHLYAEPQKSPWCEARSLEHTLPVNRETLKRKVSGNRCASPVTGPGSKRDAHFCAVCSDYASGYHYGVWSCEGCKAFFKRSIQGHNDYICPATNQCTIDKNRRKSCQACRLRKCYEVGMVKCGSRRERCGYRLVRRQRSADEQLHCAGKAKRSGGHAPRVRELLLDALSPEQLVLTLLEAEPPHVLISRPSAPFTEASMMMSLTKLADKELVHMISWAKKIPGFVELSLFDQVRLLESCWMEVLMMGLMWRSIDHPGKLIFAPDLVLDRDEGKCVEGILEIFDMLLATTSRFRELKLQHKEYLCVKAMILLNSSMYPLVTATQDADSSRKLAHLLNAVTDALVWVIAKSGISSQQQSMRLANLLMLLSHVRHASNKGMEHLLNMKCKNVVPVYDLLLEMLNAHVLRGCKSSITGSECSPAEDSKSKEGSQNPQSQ

ERβ [3] = target: T1, ERβ; experiment: Luciferase reporter gene assay in HeLa cells, antagonistic activity against 10 nM E2; assay type: cell-based; set-up: expressed in transfected cells; host or cells: HeLa; settings: for transcriptional activity (%) at most effective inhibitory concentration, ratio to that of 10 nM E2: HeLa cells, in the presence of 10 nM E2, 0.1, 1, 10 µM tested; for ERβ antagonist activity (in words): against 10 nM E2-induced ERβ activation, 100 nM, 1 μM, 10 μM; for suppression of E2-induced activation: at the 10 μM concentration, 10 nM E2
Procedure: as §1
Target sequence in this assay (Q92731 whole entry, the tested form may be a part): as above

ERβ(W335A) = ERβ(W335A) (Homo sapiens, UniProt Q92731, W335A); experiment: Competitive binding assay for ERβ(W335A); set-up: made in house; host or cells: Escherichia coli BL21α (described for the wild-type LBD); settings: for shape of competitive binding curve, ERβ(W335A): Fig. 4B
ERβ(W335A), sequence (Q92731 263-530 W335A): as the sequence (Q92731 263-530) above, with W73A counted along it
Procedure: (§2) After successive incubation with 100 μl of 0.4% dextran-coated charcoal (DCC) (Sigma-Aldrich) in PBS (pH 7.4) on ice for 10 min, free radioligands bound to DCC were removed using a vacuum filtration system with a 96-well filtration plate (MultiScreenHTS HV, […], Merck KGaA) for the bound/free separation. The radioactivity of each eluent was measured using a liquid scintillation counter (LS6500; Beckman Coulter) and Clear-sol I (Nacalai Tesque Inc). […] Each compound was dissolved in dimethyl sulfoxide to prepare a 1.0 mM stock solution and further diluted to prepare serial dilutions (10^−12 M to 10^−5 M) in the binding buffer. […] Bound/free separation was performed as described above, and the radioactivity was determined using a MicroBeta microplate counter (PerkinElmer Inc). The IC50 value of each test compound was calculated from the dose–response curves generated via nonlinear regression analysis using Prism software (GraphPad Software Inc).

ERβ [4] = target: T1, ERβ; experiment: Competitive binding assay with [3H]4OHT for WT ERβ; set-up: made in house; host or cells: Escherichia coli BL21α
Procedure: as §2
Target sequence in this assay (Q92731 263-530): as the sequence (Q92731 263-530) above

[5] = competitive binding, [3H] 17β-estradiol as radioligand, mean ± SD, read-out: Binding affinity (IC50, nM) ERβ

Structure (SMILES)	IC50 (ERβ [1]) [nM]	IC50 (ERα) [nM]	maximum fold induction (agonistic activity on ERβ) (ERβ [2])	ERβ agonist activity (in words) (ERβ [2])	transcriptional activity (%) at most effective inhibitory concentration, ratio to that of 10 nM E2 (ERβ [3]) [%]	ERβ antagonist activity (in words) (ERβ [3])	further results
CC(C)(c1ccc(O)cc1)c1ccc(C(C)(c2ccc(O)cc2)c2ccc(O)cc2)cc1 [Compound 12, α, α, α′-Tris(4-hydroxyphenyl)-1-ethyl-4-isopropylbenzene]	212 ± 36	61.7 ± 10.4	1.02	no agonist activity	7.7	antagonistic activity	–
Oc1ccc(C(c2ccc(O)cc2)(C(F)(F)F)C(F)(F)F)cc1 [Compound 4, 4,4'-(perfluoropropane-2,2-diyl)diphenol]	–	–	–	weak transcriptional activity	–	antagonistic activities	preference of binding ERβ over ERα (ERβ [1]): three times stronger binding to ERβ than ERα; shape of competitive binding curve, ERβ(W335A) (ERβ(W335A)): biphasic binding of BPC and BPAF was lost; shape of competitive binding curve, WT ERβ (ERβ [4]; [3H]4OHT radioligand): biphasic binding curve; increase of ERβ binding compared with BPA (ERβ [4]; compared with BPA): ~50 fold
Cc1cc(C(c2ccccc2O)c2cc(C)c(O)c(C)c2C)c(C)c(C)c1O [Compound 7, 4,4′-(2-Hydroxybenzylidene)-bis(2,3,6-trimethylphenol)]	–	12.3 ± 7.3	1.45	no agonist activity	6.6	–	IC50 (ERβ [1]; [5]): 41.5 ± 2 nM; suppression of E2-induced activation (ERβ [3]): 90%
Nc1cc(C(c2ccc(O)c(N)c2)(C(F)(F)F)C(F)(F)F)ccc1O [Compound 13, 2,2-Bis(3-amino-4-hydroxyphenyl)hexafluoropropane]	–	334 ± 112	1.67	–	86.7	–	IC50 (ERβ [1]; [5]): 224 ± 113 nM
Oc1ccc(C(=C(Cl)Cl)c2ccc(O)cc2)cc1 [Compound 1, 4,4'-(2,2-dichloroethene-1,1-diyl)diphenol]	2.99 ± 1	2.81 ± 0.61	2.39	weak transcriptional activity	6.0	strongest antagonistic activity	IC50 (ERβ(W335A)): 691 ± 29 nM; shape of competitive binding curve, ERβ(W335A) (ERβ(W335A)): biphasic binding of BPC and BPAF was lost; IC50 (ERβ [4]): 18.1 nM; shape of competitive binding curve, WT ERβ (ERβ [4]; [3H]4OHT radioligand): biphasic dose–response curve; IC50 (ERβ [4]; read-out: IC50, biphasic curve, low-affinity site, [3H]4OHT radioligand, WT ERβ): 2280 nM
Oc1ccc(C2(c3ccc(O)cc3)CCCCC2)cc1 [Compound 5, 4,4'-(cyclohexane-1,1-diyl)diphenol]	21.6 ± 1.9	–	3.29	–	19.9	–	–
Cc1cc(C(C)(C)c2ccc(C(C)(C)c3cc(C)c(O)c(C)c3)cc2)cc(C)c1O [Compound 20, α,α′-Bis(4-hydroxy-3,5-dimethylphenyl)-1,4-diisopropylbenzene]	–	733 ± 628	0.99	no agonist activity	6.4	antagonistic activity	IC50 (ERβ [1]; [5]): > 10000 nM
CC(C)(c1ccc(O)cc1)c1cccc(C(C)(C)c2ccc(O)cc2)c1 [Compound 10, 4,4'-(1,3-phenylenebis(propane-2,2-diyl))diphenol]	148 ± 80	56.8 ± 11.7	1.12	no agonist activity	5.4	antagonistic activity	–
C[C@]12CC[C@@H]3c4ccc(O)cc4CC[C@H]3[C@@H]1CC[C@@H]2O [Compound E2, Estradiol, reference compound]	–	0.88 ± 0.13	–	–	–	–	–
Cc1cc(C2(c3ccc(O)c(C)c3)c3ccccc3-c3ccccc32)ccc1O [Compound 15, 9,9-Bis(4-hydroxy-3-methylphenyl)fluorene]	405 ± 108	–	–	–	–	weak antagonist	–
Cc1cc(C2(c3ccc(O)c(C)c3)CCCCC2)ccc1O [Compound 9, 1,1-Bis(4-hydroxy-3-methylphenyl)cyclohexane]	–	38.6 ± 7.2	2.27	–	17.0	–	IC50 (ERβ [1]; [5]): 132 ± 6.5 nM
CC(c1ccccc1)(c1ccc(O)cc1)c1ccc(O)cc1 [Compound 11, 4,4'-(1-phenylethane-1,1-diyl)diphenol]	–	259 ± 41	–	–	–	–	–
Oc1ccc(C(c2ccc(O)cc2)C(Cl)(Cl)Cl)cc1 [Compound 3, 2,2-bis(p-hydroxyphenyl)-1,1,1-trichloroethane]	–	–	–	–	–	antagonistic activities	preference of binding ERβ over ERα (ERβ [1]): three times stronger binding to ERβ than ERα
CCC(C)(c1ccc(O)cc1)c1ccc(O)cc1 [Compound 8, 4,4'-(butane-2,2-diyl)diphenol]	79.8 ± 12.6	195 ± 44	5.13	–	28.9	weak antagonist activity	transcriptional activity as % of BPA-induced transcriptional activity (ERβ [2]; at the highest concentration of 10 μM): ~50%; inhibition of BPA-induced activation (ERβ [3]; as worded): 50%
Oc1ccc(C2(c3ccc(O)cc3)c3ccccc3-c3ccccc32)cc1 [Compound 14, 9,9-Bis(4-hydroxyphenyl)fluorene]	325 ± 60	2230 ± 202	2.47	–	76.9	–	–
Nc1ccc(Oc2ccc(C(c3ccc(Oc4ccc(N)cc4)cc3)(C(F)(F)F)C(F)(F)F)cc2)cc1 [Compound 17, 2,2-Bis[4-(4-aminophenoxy)phenyl]hexafluoropropane]	609 ± 81	1030 ± 375	1.46	–	99.1	–	–
CC(C)(c1ccc(O)cc1)c1ccc(C(C)(C)c2ccc(O)cc2)cc1 [Compound 16, 4,4'-(1,4-phenylenebis(propane-2,2-diyl))diphenol]	607 ± 28	176 ± 35	1.44	no agonist activity	11.8	antagonistic activity	–
CC/C(=C(\c1ccc(O)cc1)c1ccc(OCCN(C)C)cc1)c1ccccc1 [Compound 4OHT, 4-Hydroxytamoxifen, reference compound]	–	[…]	–	–	–	–	shape of competitive binding curve, WT ERβ (ERβ [4]; [3H]4OHT radioligand): biphasic curve
CCCCC(CC)C(c1ccc(O)cc1)c1ccc(O)cc1 (stereo not drawn) [Compound 6, 4,4′-(2-Ethylhexylidene)bisphenol]	–	18.5 ± 6.7	1.59	no agonist activity	11.1	–	IC50 (ERβ [1]; [5]): 25.9 ± 8.5 nM; suppression of E2-induced activation (ERβ [3]): 90%
